Key:
[1] = Ability to block capsaicin-induced calcium influx in rat-human chimera TRPV1 expressing CHO cells; format: cell-based
[2] = Ability to block acid-induced calcium influx in rat-human chimera TRPV1 expressing CHO cells; format: cell-based

IC50 [1] [nM] | IC50 [2] [nM] | SMILES
> 4000 | > 4000 | O=C(Nc1ccccc1)c1csc(Cc2c(Cl)cccc2Cl)n1
> 4000 | 1270 | CN(C)c1ccc(NC(=O)c2csc(Cc3c(Cl)cccc3Cl)n2)cc1
> 4000 | > 4000 | COc1ccc(NC(=O)c2csc(Cc3c(Cl)cccc3Cl)n2)cc1
90 | 82 | Cc1cccc(C)c1Nc1nc(C(=O)Nc2ccc(C(F)(F)F)cc2)cs1
360 | 880 | O=C(Nc1ccc(C(F)(F)F)cc1)c1csc(Nc2c(Cl)cncc2Cl)n1
> 4000 | > 4000 | O=C(Nc1ccc(C(F)(F)F)cc1)c1csc(Nc2c(Cl)cccc2C(F)(F)F)n1
 | > 4000 | Cc1nc(Cc2c(Cl)cccc2Cl)sc1C(=O)Nc1ccc(C(F)(F)F)cc1
110 | 130 | O=C(Nc1ccc(C(F)(F)F)nc1)c1csc(Cc2c(Cl)cccc2Cl)n1
> 4000 | > 4000 | O=C(Nc1cccc(Br)c1)c1csc(Cc2c(Cl)cccc2Cl)n1
> 4000 | > 4000 | O=C(Nc1ccccc1Br)c1csc(Cc2c(Cl)cccc2Cl)n1
790 | 1780 | O=C(Nc1ccc(C(F)(F)F)cc1)c1cnc(Cc2c(Cl)cccc2Cl)s1
> 4000 | > 4000 | O=C(Nc1ccc(Br)cn1)c1csc(Cc2c(Cl)cccc2Cl)n1
370 | 520 | CC(C)c1ccc(NC(=O)c2csc(Cc3c(Cl)cccc3Cl)n2)cc1
> 4000 | > 4000 | COc1ccc(NC(=O)c2csc(Cc3c(Cl)cccc3Cl)n2)cn1
230 | 230 | O=C(Nc1ccc(C(F)(F)F)cc1)c1c[nH]c(Cc2c(Cl)cccc2Cl)n1
1750 | 1410 | O=C(Nc1ccc(C(F)(F)F)cc1)c1csc(Nc2ccccc2Cl)n1
810 | 1450 | CCc1ccc(NC(=O)c2csc(Cc3c(Cl)cccc3Cl)n2)cc1
290 | 350 | O=C(Nc1ccc(C(F)(F)C(F)(F)F)cc1)c1csc(Cc2c(Cl)cccc2Cl)n1
62 | 200 | O=C(Nc1ccc(C(F)(F)F)cc1)c1coc(Cc2c(Cl)cccc2Cl)n1
> 4000 | > 4000 | O=C(Nc1ccc(C(F)(F)F)cc1)c1csc(CCc2c(Cl)cccc2Cl)n1
870 | 1280 | O=C(Nc1ccc(C(F)(F)F)cc1)c1csc(Oc2c(Cl)cccc2Cl)n1
1010 | 1020 | Cn1cc(C(=O)Nc2ccc(C(F)(F)F)cc2)nc1Cc1c(Cl)cccc1Cl
400 | 460 | O=C(Nc1ccc(Br)cc1)c1csc(Cc2c(Cl)cccc2Cl)n1
51 | 48 | O=C(Nc1ccc(C(F)(F)F)cc1)c1csc(Nc2c(Cl)cccc2Cl)n1
450 | 720 | N#Cc1ccc(NC(=O)c2csc(Cc3c(Cl)cccc3Cl)n2)cc1
 | 88 | O=C(Nc1ccc(C(F)(F)F)cc1)c1csc(Cc2c(Cl)cccc2Cl)n1
570 | 300 | CC(C)(C)c1ccc(NC(=O)c2csc(Cc3c(Cl)cccc3Cl)n2)cc1
> 4000 | > 4000 | O=C(Nc1ccc(C(F)(F)F)cc1)c1csc(-c2c(Cl)cccc2Cl)n1

From ChEMBL document CHEMBL1141866, “Synthesis and evaluation of thiazole carboxamides as vanilloid receptor 1 (TRPV1) antagonists” (Bioorg Med Chem Lett, 2005)
